Source: US20220305012A1, “L[…] TREATING SLEEP ISSUES” (EISAI R&D MANAGEMENT CO., LTD., priority 2019, published 2022)

Assays:
Assay type in all cases: in vivo, human
[1] = system: Subjects Having Insomnia Disorder; assay: Example 3: proportion of subjects whose ISI Total Score decreased and was <10 (pooled); details: for percentage of subjects whose ISI Total Score decreased at month 1 and was less than 10: end of month 1, pooled Examples 1 and 2; for Responder No: subjects whose Insomnia Severity Index Total Score decreased from Baseline to Month 1 and was <10 / Responder Yes: subjects whose Insomnia Severity Index Total Score decreased from Baseline to Month 1 and was <10: Full Analysis Set, Examples 1 and 2; for Responder No: subjects whose Insomnia Severity Index Total Score decreased from Baseline to Month 1 and was <10 / Responder Yes: subjects whose Insomnia Severity Index Total Score decreased from Baseline to Month 1 and was <10 / Difference of proportion of responders vs. Placebo: Month 1; for Difference of proportion of responders vs. Placebo: ISI Total Score decreased and <10
Procedure: The data collected in studies described in Example 1 and Example 2 were pooled and the response of each subject was analyzed.
Table 32 provides the summary and analysis of responders, defined as those subjects whose Total ISI Score decreased at the end of month 1 by 7 or more points compared to baseline. Table 33 provides the summary and analysis of responders, defined as those subjects whose ISI Total Score decreased compared to baseline and was less than 10 at month 1.

[2] = system: Subjects Having Insomnia Disorder; assay: Example 1: subjective sleep onset latency (sSOL), Sleep Diary
From the text: As used herein, the term “subjective sleep onset latency”, abbreviated as “sSOL”, means the estimated number of minutes from the time that the subject attempted to sleep until sleep onset. In some embodiments, sSOL is derived from data entered in a subject's Sleep Diary.
In some embodiments, sleep diaries were used to assess sleep parameters reported by subjects (i.e., subjective assessments) including subjective sleep onset latency (sSOL), subjective sleep efficiency (sSE), subjective WASO (sWASO), and subjective total sleep time (sTST). Subjects were instructed to complete the Sleep Diary developed based on the consensus Sleep Diary as described in Carney et al., “The consensus sleep diary: standardizing prospective sleep self-monitoring,” Sleep 2012; 35(2):287-302. In some embodiments, the Sleep Diary was used to assess the subject's global perception of quality of sleep on the previous night with the following question: “How would you rate the quality of your sleep last night?” Subjects rated the quality of their sleep on a scale from 1 to 9, with 1 being extremely poor and 9 being extremely good. In some embodiments, the Sleep Diary was used to assess subjective ratings of morning sleepiness with the following question: “How alert/sleepy do you feel this morning?” Subjects rated their sleepiness/alertness level on a Likert scale from 1 to 9, with 1 being extremely sleepy and 9 being extremely alert.
sSOL—subjective sleep onset latency: estimated minutes from the time that the subject attempted to sleep until sleep onset.
(§1) Subjects were randomized in a double-blind manner and received either placebo, 5 mg of lemborexant, or 10 mg of lemborexant (approximately 1:1:1 randomization). All subjects underwent routine safety monitoring through the study, including assessments of treatment-emergent adverse events, 12-lead electrocardiograms, vital signs, weight, and clinical hematology and blood chemistry labs. Suicidality was assessed using the eC-SSRS.
Treatment period 1 began with the first dose of randomized study medication (placebo, 5 mg of lemborexant, or 10 mg of lemborexant). Subjects completed sleep diaries daily in the morning, within one hour of waketime. The subjects were assessed by a clinician one month, two months, three months, and six months after initiation of Treatment period 1. The following assessments were conducted:
The primary endpoint was the mean change from study baseline in subjective sleep onset latency at month 6.

[3] = system: Subjects Having Insomnia Disorder; assay: Example 1: treatment-emergent adverse events; details: for TEAEs: Safety Analysis Set
Procedure: as §1
Safety endpoints for this study included the safety and tolerability of lemborexant (1) compared to placebo (during treatment period 1) and (2) in subjects exposed to lemborexant for 3, 6, 9, and 12 months.

With Cc1ncc(OC[C@@]2(c3cccc(F)c3)C[C@H]2C(=O)Nc2ccc(F)cn2)c(C)n1 [Lemborexant, (1R,2S)-2-(((2,4-dimethylpyrimidin-5-yl)oxy)methyl)-2-(3-fluorophenyl)-N-(5-fluoropyridin-2-yl)cyclopropanecarboxamide] the “percentage of subjects whose ISI Total Score decreased at month 1 and was less than 10” value ([1]; 5 mg) was 33.0%, the “percentage of subjects whose ISI Total Score decreased at month 1 and was less than 10” value ([1]; 10 mg) was 33.4% and the “Responder No: subjects whose Insomnia Severity Index Total Score decreased from Baseline to Month 1 and was <10” value ([1]; Lemborexant 5 mg (N = 582)) was 366 (62.9) n (%). The “Responder Yes: subjects whose Insomnia Severity Index Total Score decreased from Baseline to Month 1 and was <10” value ([1]; Lemborexant 5 mg (N = 582)) was 192 (33.0) n (%), the “Difference of proportion of responders vs. Placebo” value ([1]; Lemborexant 5 mg vs placebo) was 12.44 and the “Responder No: subjects whose Insomnia Severity Index Total Score decreased from Baseline to Month 1 and was <10” value ([1]; Lemborexant 10 mg (N = 584)) was 345 (59.1) n (%). The “Responder Yes: subjects whose Insomnia Severity Index Total Score decreased from Baseline to Month 1 and was <10” value ([1]; Lemborexant 10 mg (N = 584)) was 195 (33.4) n (%), the “Difference of proportion of responders vs. Placebo” value ([1]; Lemborexant 10 mg vs placebo) was 12.71 and the “difference of proportion of responders (ISI Total Score decreased and less than 10) versus placebo” value ([1]; both doses, month 1 (Table 33)) was “statistically significant”. The “subjective sleep onset latency compared with placebo” value ([2]; 5 mg and 10 mg, at the equivalent timepoint (Table 2)) was “shorter subjective sleep onset latency than subjects treated with placebo”, the “sSOL, Geometric Mean” value ([2]; 5 mg, First 7 Nights) was 30.99 min and the “sSOL, Mean” value ([2]; 5 mg, First 7 Nights) was 45.69 min. The “sSOL, Median” value ([2]; 5 mg, First 7 Nights) was 36.58 min, the “sSOL, Geometric Mean” value ([2]; 5 mg, Month 1) was 26.98 min and the “sSOL, Mean” value ([2]; 5 mg, Month 1) was 41.89 min. The “sSOL, Median” value ([2]; 5 mg, Month 1) was 32.50 min, the “sSOL, Geometric Mean” value ([2]; 5 mg, Month 3) was 21.72 min and the “sSOL, Mean” value ([2]; 5 mg, Month 3) was 34.31 min. The “sSOL, Median” value ([2]; 5 mg, Month 3) was 24.79 min, the “sSOL, Geometric Mean” value ([2]; 5 mg, Month 6) was 18.62 min and the “sSOL, Mean” value ([2]; 5 mg, Month 6) was 29.49 min. The “sSOL, Median” value ([2]; 5 mg, Month 6) was 22.29 min, the “sSOL, Geometric Mean” value ([2]; 5 mg, Study Baseline) was 42.97 min and the “sSOL, Mean” value ([2]; 5 mg, Study Baseline) was 62.19 min. The “sSOL, Median” value ([2]; 5 mg, Study Baseline) was 53.57 min, the “sSOL Change from Study Baseline, Mean” value ([2]; 5 mg, after 1 Month) was -19.41 min and the “sSOL Change from Study Baseline, Median” value ([2]; 5 mg, after 1 Month) was -13.71 min. The “sSOL Change from Study Baseline, Mean” value ([2]; 5 mg, after 3 Months) was -25.08 min, the “sSOL Change from Study Baseline, Median” value ([2]; 5 mg, after 3 Months) was -20.71 min and the “sSOL Change from Study Baseline, Mean” value ([2]; 5 mg, after 6 Months) was -29.39 min. The “sSOL Change from Study Baseline, Median” value ([2]; 5 mg, after 6 Months) was -21.81 min, the “sSOL Change from Study Baseline, Mean” value ([2]; 5 mg, after 7 Nights) was -16.86 min and the “sSOL Change from Study Baseline, Median” value ([2]; 5 mg, after 7 Nights) was -11.00 min. For the same compound, the “sSOL, Geometric Mean” value ([2]; 10 mg, First 7 Nights) was 30.77 min, the “sSOL, Mean” value ([2]; 10 mg, First 7 Nights) was 45.94 min and the “sSOL, Median” value ([2]; 10 mg, First 7 Nights) was 35.71 min. For the same compound, the “sSOL, Geometric Mean” value ([2]; 10 mg, Month 1) was 27.14 min, the “sSOL, Mean” value ([2]; 10 mg, Month 1) was 41.93 min and the “sSOL, Median” value ([2]; 10 mg, Month 1) was 31.79 min. For the same compound, the “sSOL, Geometric Mean” value ([2]; 10 mg, Month 3) was 22.71 min, the “sSOL, Mean” value ([2]; 10 mg, Month 3) was 36.13 min and the “sSOL, Median” value ([2]; 10 mg, Month 3) was 26.42 min. The “sSOL, Geometric Mean” value ([2]; 10 mg, Month 6) was 19.35 min, the “sSOL, Mean” value ([2]; 10 mg, Month 6) was 33.09 min and the “sSOL, Median” value ([2]; 10 mg, Month 6) was 23.57 min. The “sSOL, Geometric Mean” value ([2]; 10 mg, Study Baseline) was 45.05 min, the “sSOL, Mean” value ([2]; 10 mg, Study Baseline) was 64.97 min and the “sSOL, Median” value ([2]; 10 mg, Study Baseline) was 55.71 min. For the same compound, the “sSOL Change from Study Baseline, Mean” value ([2]; 10 mg, after 1 Month) was -24.06 min, the “sSOL Change from Study Baseline, Median” value ([2]; 10 mg, after 1 Month) was -19.86 min and the “sSOL Change from Study Baseline, Mean” value ([2]; 10 mg, after 3 Months) was -27.94 min. For the same compound, the “sSOL Change from Study Baseline, Median” value ([2]; 10 mg, after 3 Months) was -25.71 min, the “sSOL Change from Study Baseline, Mean” value ([2]; 10 mg, after 6 Months) was -32.49 min and the “sSOL Change from Study Baseline, Median” value ([2]; 10 mg, after 6 Months) was -28.21 min. The “sSOL Change from Study Baseline, Mean” value ([2]; 10 mg, after 7 Nights) was -18.89 min, the “sSOL Change from Study Baseline, Median” value ([2]; 10 mg, after 7 Nights) was -12.21 min and the Deaths ([3]; 5 mg (N = 314)) was 0 n (%). The “Other SAEs” value ([3]; 5 mg (N = 314)) was 7 (2.2) n (%), the “SAEs: Congenital anomaly/birth defect” value ([3]; 5 mg (N = 314)) was 0 n (%) and the “SAEs: Important medical events” value ([3]; 5 mg (N = 314)) was 1 (0.3) n (%). The “SAEs: Life threatening” value ([3]; 5 mg (N = 314)) was 0 n (%), the “SAEs: Persistent or significant disability or incapacity” value ([3]; 5 mg (N = 314)) was 0 n (%) and the “SAEs: Requires inpatient hospitalization or prolongation of existing hospitalization” value ([3]; 5 mg (N = 314)) was 6 (1.9) n (%). For the same compound, the “Serious TEAEs” value ([3]; 5 mg (N = 314)) was 7 (2.2) n (%), the “Severe TEAEs” value ([3]; 5 mg (N = 314)) was 13 (4.1) n (%) and the “TEAEs leading to study dose reduced” value ([3]; 5 mg (N = 314)) was 0 n (%). For the same compound, the “TEAEs leading to study drug dose adjustment” value ([3]; 5 mg (N = 314)) was 25 (8.0) n (%), the “TEAEs leading to study drug interrupted” value ([3]; 5 mg (N = 314)) was 13 (4.1) n (%) and the “TEAEs leading to study drug withdrawal” value ([3]; 5 mg (N = 314)) was 13 (4.1) n (%). The “Treatment-related TEAEs” value ([3]; 5 mg (N = 314)) was 78 (24.8) n (%), the TEAEs ([3]; 5 mg (N = 314)) was 192 (61.1) n (%) and the Deaths ([3]; 10 mg (N = 314)) was 0 n (%). For the same compound, the “Other SAEs” value ([3]; 10 mg (N = 314)) was 9 (2.9) n (%), the “SAEs: Congenital anomaly/birth defect” value ([3]; 10 mg (N = 314)) was 0 n (%) and the “SAEs: Important medical events” value ([3]; 10 mg (N = 314)) was 0 n (%). The “SAEs: Life threatening” value ([3]; 10 mg (N = 314)) was 0 n (%), the “SAEs: Persistent or significant disability or incapacity” value ([3]; 10 mg (N = 314)) was 0 n (%) and the “SAEs: Requires inpatient hospitalization or prolongation of existing hospitalization” value ([3]; 10 mg (N = 314)) was 9 (2.9) n (%). The “Serious TEAEs” value ([3]; 10 mg (N = 314)) was 9 (2.9) n (%), the “Severe TEAEs” value ([3]; 10 mg (N = 314)) was 8 (2.5) n (%) and the “TEAEs leading to study dose reduced” value ([3]; 10 mg (N = 314)) was 0 n (%). The “TEAEs leading to study drug dose adjustment” value ([3]; 10 mg (N = 314)) was 33 (10.5) n (%), the “TEAEs leading to study drug interrupted” value ([3]; 10 mg (N = 314)) was 8 (2.5) n (%) and the “TEAEs leading to study drug withdrawal” value ([3]; 10 mg (N = 314)) was 26 (8.3) n (%). For the same compound, the “Treatment-related TEAEs” value ([3]; 10 mg (N = 314)) was 91 (29.0) n (%), the TEAEs ([3]; 10 mg (N = 314)) was 187 (59.6) n (%) and the “safety and tolerability (incidence of adverse events)” value ([3]; Example 1 (Table 11)) was “safe and well-tolerated”.
